Each compound was assayed against hPAD4 enzyme (Homo sapiens (Human), UniProt Q9UM07) (assay: RFMS2 assay (RapidFire mass spectrometry, TSTGGRQGSHH peptide substrate)). Conditions: 35 nM recombinant human PAD4, 500 μM TSTGGRQGSHH peptide, 30 minutes at room temperature; read-out: RFMS 2 IC50.
Type: biochemical
Experimental: Stock compounds were dissolved and stored in 100% DMSO. Compound solutions were prepared via serial dilution at 3-fold intervals in DMSO with top compound concentration at 20 μM in each assay. 0.25 μl of compound solution was transferred from the compound plate to the assay plate by using an acoustic dispenser.
• Total reaction volume: 25 μl • Assay buffer: […] pH 7.4, 200 mM NaCl, 2 mM CaCl2, 5 mM DTT • 35 nM recombinant human PAD4 • 500 μM TSTGGRQGSHH peptide • 1.2% DMSO • Stop solution: 10% formic acid
Reaction mixtures were incubated at room temperature for 30 minutes. 10 μl each of the reaction mixtures was then mixed with 40 μl of 10% formic acid in a microtiter plate. The plate was frozen at −80° C. before shipping out on dry ice for RapidFire mass spectroscopy analysis.
Thawed samples were loaded onto the Rapid Fire 300 system (Agilent) wherein they were first sipped for 250 ms and then loaded onto a Agilent “C” (C18) cartridge using a mobile phase of water containing 0.09% formic acid/0.01% trifluoroacetic acid for 3000 ms desalting flowing at a rate of 1.5 ml/min. Once the samples were loaded and washed, a mobile phase of acetonitrile containing 0.09% formic acid/0.01% trifluoroacetic acid was used to elute the samples directly onto a Sciex API4000 triple quadrupole mass spectrometer for 3000 ms at a flow rate of 1.25 ml/min.
MRM transitions for substrate and product were monitored in positive ESI mode at m/z=562.3/969.7 and m/z=562.8/541.3 respectively. The dwell time for each transition was set at 100 ms, and the ESI voltage was used at 5500 with a source temperature of 650° C. Extracted ion peaks for each transition were integrated using the Rapid Fire Integrator software.
Compounds having an activity designated as “A” provided an IC50≤10 nM; compounds having an activity designated as “B” provided an IC50 11-100 nM; compounds having an activity designated as “C” provided an IC50 101-500 nM; compounds having an activity designated as “D” provided an IC50 501-1000 nM; compounds having an activity designated as “E” provided an IC50>1000 nM.

hPAD4 enzyme, sequence (Q9UM07 whole entry): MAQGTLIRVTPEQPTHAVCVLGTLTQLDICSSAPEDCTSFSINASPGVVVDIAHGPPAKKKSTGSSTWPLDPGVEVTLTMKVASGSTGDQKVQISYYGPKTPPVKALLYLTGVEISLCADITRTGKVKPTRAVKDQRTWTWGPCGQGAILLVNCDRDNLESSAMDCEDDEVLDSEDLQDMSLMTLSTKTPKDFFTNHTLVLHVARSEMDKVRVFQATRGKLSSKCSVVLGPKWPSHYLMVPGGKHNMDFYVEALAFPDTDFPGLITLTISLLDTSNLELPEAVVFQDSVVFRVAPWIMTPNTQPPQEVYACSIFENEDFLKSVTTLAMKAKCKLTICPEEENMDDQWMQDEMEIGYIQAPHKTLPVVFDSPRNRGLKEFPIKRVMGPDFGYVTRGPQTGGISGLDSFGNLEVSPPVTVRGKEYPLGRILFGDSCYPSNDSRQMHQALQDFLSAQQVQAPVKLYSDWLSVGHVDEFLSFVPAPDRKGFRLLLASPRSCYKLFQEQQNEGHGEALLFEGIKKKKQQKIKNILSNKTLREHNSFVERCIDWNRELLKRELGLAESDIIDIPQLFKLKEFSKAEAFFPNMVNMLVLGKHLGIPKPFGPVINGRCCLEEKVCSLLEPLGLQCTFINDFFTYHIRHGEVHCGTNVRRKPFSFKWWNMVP

| SMILES | IC50 [nM] |
| --- | --- |
| COc1c(F)ccc2cc(-c3nc4cc5c(cc4n3C)CCN(C[C@H](N)CF)C5=O)n(CC3CC3)c12 [Example 66, (S)-6-(2-amino-3-fluoropropyl)-2-(1-(cyclopropylmethyl)-6-fluoro-7-methoxy-1H-indol-2-yl)-1-methyl-1,6,7,8-tetrahydro-5H-imidazo[4,5-g]isoquinolin-5-one] | 101 to 500 |
| Cn1c(-c2cc3ccc(C(=O)O)cc3n2CC2CC2)nc2cc3c(cc21)CCN(C[C@H](N)CF)C3=O [Example 67, (S)-2-(6-(2-amino-3-fluoropropyl)-1-methyl-5-oxo-5,6,7,8-tetrahydro-1H-imidazo[4,5-g]isoquinolin-2-yl)-1-(cyclopropylmethyl)-1H-indole-6-carboxylic acid] | > 1000 |
| Cn1c(-c2cc3cccc(N4CCOCC4)c3n2CC2CC2)nc2cc3c(cc21)CCN(C[C@H](N)CF)C3=O [Example 70] | > 1000 |
| C[C@@H](N)CN1CCc2cc3c(cc2C1=O)nc(-c1cc2ccccc2n1CC12CC(C1)C2)n3C [Example 73, (R)-6-(2-aminopropyl)-2-(1-(bicyclo[1.1.1]pentan-1-ylmethyl)-1H-indol-2-yl)-1-methyl-1,6,7,8-tetrahydro-5H-imidazo[4,5-g]isoquinolin-5-one] | > 1000 |
| CC(C)Cn1c(-c2nc3cc4c(cc3n2C)CCN(C[C@@H](C)N)C4=O)cc2ccccc21 [Example 74, (R)-6-(2-aminopropyl)-2-(1-isobutyl-1H-indol-2-yl)-1-methyl-1,6,7,8-tetrahydro-5H-imidazo[4,5-g]isoquinolin-5-one] | 501 to 1000 |
| COC1CC(Cn2c(-c3nc4cc5c(cc4n3C)CCN(C[C@@H](C)N)C5=O)cc3ccccc32)C1 (stereo partly drawn) [Example 75, (R)-6-(2-aminopropyl)-2-(1-((3-methoxycyclobutyl)methyl)-1H-indol-2-yl)-1-methyl-1,6,7,8-tetrahydro-5H-imidazo[4,5-g]isoquinolin-5-one] | 501 to 1000 |
| COCCn1c(-c2nc3cc4c(cc3n2C)CCN(C[C@@H](C)N)C4=O)cc2ccccc21 [Example 76, (R)-6-(2-aminopropyl)-2-(1-(2-methoxyethyl)-1H-indol-2-yl)-1-methyl-1,6,7,8-tetrahydro-5H-imidazo[4,5-g]isoquinolin-5-one] | > 1000 |
| C[C@@H](N)CN1CCc2cc3c(cc2C1=O)nc(-c1cc2ccccc2n1Cc1ccccc1)n3C [Example 78, (R)-6-(2-aminopropyl)-2-(1-benzyl-1H-indol-2-yl)-1-methyl-1,6,7,8-tetrahydro-5H-imidazo[4,5-g]isoquinolin-5-one] | 101 to 500 |
| CCn1c(-c2nc3cc4c(cc3n2C)CCN(C[C@@H](C)N)C4=O)cc2cccnc21 [Example 79, (R)-6-(2-aminopropyl)-2-(1-ethyl-1H-pyrrolo[2,3-b]pyridin-2-yl)-1-methyl-1,6,7,8-tetrahydro-5H-imidazo[4,5-g]isoquinolin-5-one] | > 1000 |
| C[C@@H](N)CN1CCc2cc3c(cc2C1=O)nc(-c1cc2ccccc2n1Cc1cccnc1)n3C [Example 80, (R)-6-(2-aminopropyl)-1-methyl-2-(1-(pyridin-3-ylmethyl)-1H-indol-2-yl)-1,6,7,8-tetrahydro-5H-imidazo[4,5-g]isoquinolin-5-one] | 101 to 500 |
| C[C@@H](N)CN1CCc2cc3c(cc2C1=O)nc(-c1cc2ccccc2n1Cc1ccncc1)n3C [Example 81, (R)-6-(2-aminopropyl)-1-methyl-2-(1-(pyridin-4-ylmethyl)-1H-indol-2-yl)-1,6,7,8-tetrahydro-5H-imidazo[4,5-g]isoquinolin-5-one] | > 1000 |
| C=CCn1c(-c2nc3cc4c(cc3n2C)CCN(C[C@@H](C)N)C4=O)cc2ccccc21 [Example 82, (R)-2-(1-allyl-1H-indol-2-yl)-6-(2-aminopropyl)-1-methyl-1,6,7,8-tetrahydro-5H-imidazo[4,5-g]isoquinolin-5-one] | 501 to 1000 |
| C[C@@H](N)CN1CCc2cc3c(cc2C1=O)nc(-c1cc2ccccc2n1Cc1ccccn1)n3C [Example 84, (R)-6-(2-aminopropyl)-1-methyl-2-(1-(pyridin-2-ylmethyl)-1H-indol-2-yl)-1,6,7,8-tetrahydro-5H-imidazo[4,5-g]isoquinolin-5-one] | 101 to 500 |
| C[C@@H](O)CN1CCc2cc3c(cc2C1=O)nc(-c1cc2ccccc2n1CC1CC1)n3C [Example 85, (R)-2-(1-(cyclopropylmethyl)-1H-indol-2-yl)-6-(2-hydroxypropyl)-1-methyl-1,6,7,8-tetrahydro-5H-imidazo[4,5-g]isoquinolin-5-one] | > 1000 |
| COCCn1c(-c2nc3cc4c(cc3n2C)CCN(C[C@@H](C)N)C4=O)cc2cccc(OC)c21 [Example 88, (R)-6-(2-aminopropyl)-2-(7-methoxy-1-(2-methoxyethyl)-1H-indol-2-yl)-1-methyl-1,6,7,8-tetrahydro-5H-imidazo[4,5-g]isoquinolin-5-one] | 101 to 500 |

More lines, now with the values ahead:

| IC50 [nM] | SMILES |
| --- | --- |
| > 1000 | CN(C)c1cccc2cc(-c3nc4cc5c(cc4n3C)CCN(C[C@H](N)CF)C5=O)n(CC3CC3)c12 [Example 69, (S)-6-(2-amino-3-fluoropropyl)-2-(1-(cyclopropylmethyl)-7-(dimethylamino)-1H-indol-2-yl)-1-methyl-1,6,7,8-tetrahydro-5H-imidazo[4,5-g]isoquinolin-5-one] |
| 101 to 500 | C[C@@H](N)CN1CCc2cc3c(cc2C1=O)nc(-c1cc2ccccc2n1CC1CCC1)n3C [Example 71, (R)-6-(2-aminopropyl)-2-(1-(cyclobutylmethyl)-1H-indol-2-yl)-1-methyl-1,6,7,8-tetrahydro-5H-imidazo[4,5-g]isoquinolin-5-one] |
| 101 to 500 | C[C@@H](N)CN1CCc2cc3c(cc2C1=O)nc(-c1cc2ccccc2n1CC1CCCC1)n3C [Example 72, (R)-6-(2-aminopropyl)-2-(1-(cyclopentylmethyl)-1H-indol-2-yl)-1-methyl-1,6,7,8-tetrahydro-5H-imidazo[4,5-g]isoquinolin-5-one] |
| 101 to 500 | C[C@@H](N)CN1CCc2cc3c(cc2C1=O)nc(-c1cc2ccccc2n1CCC1CC1)n3C [Example 77, (R)-6-(2-aminopropyl)-2-(1-(2-cyclopropylethyl)-1H-indol-2-yl)-1-methyl-1,6,7,8-tetrahydro-5H-imidazo[4,5-g]isoquinolin-5-one] |
| 101 to 500 | Cc1ccc2cc(-c3nc4cc5c(cc4n3C)CCN(C[C@@H](C)N)C5=O)n(CC3CCC3)c2c1 [Example 83] |
| 501 to 1000 | COCCn1c(-c2nc3cc4c(cc3n2C)CCN(C[C@@H](C)N)C4=O)cc2cccc(C)c21 [Example 87, (R)-6-(2-aminopropyl)-2-(1-(2-methoxyethyl)-7-methyl-1H-indol-2-yl)-1-methyl-1,6,7,8-tetrahydro-5H-imidazo[4,5-g]isoquinolin-5-one] |
| 101 to 500 | Cc1cccc2cc(-c3nc4cc5c(cc4n3C)CCN(C[C@@H](C)N)C5=O)n(CC3CCC3)c12 [Example 89, (R)-6-(2-aminopropyl)-2-(1-(cyclobutylmethyl)-7-methyl-1H-indol-2-yl)-1-methyl-1,6,7,8-tetrahydro-5H-imidazo[4,5-g]isoquinolin-5-one] |
| 101 to 500 | CCn1c(-c2nc3cc4c(cc3n2C)CCN(C[C@@H](C)N)C4=O)cc2cccc(OC)c21 [Example 90, (R)-6-(2-aminopropyl)-2-(1-ethyl-7-methoxy-1H-indol-2-yl)-1-methyl-1,6,7,8-tetrahydro-5H-imidazo[4,5-g]isoquinolin-5-one] |
| 101 to 500 | COc1cccc2cc(-c3nc4cc5c(cc4n3C)CCN(C[C@@H](C)N)C5=O)n(CCOC3CC3)c12 [Example 91] |

Reference: patent US20250346592A1 (Celgene Corporation, priority 2022, published 2025)
